Active and inactive are the calls of the source.
What was measured:
[1] = molecular target: Glutamate dehydrogenase 1, mitochondrial (Rattus norvegicus) (UniProt P10860); assay: Binding affinity to mitochondrial glutamate dehydrogenase 1 in Sprague-Dawley rat heart homogenate after 15 mins by chromatographic analysis; type: tissue-based
[2] = molecular target: Isocitrate dehydrogenase [NADP], mitochondrial (Mus musculus) (UniProt P54071); assay: Binding affinity to mouse mitochondrial isocitrate dehydrogenase by chromatographic analysis
Isocitrate dehydrogenase [NADP], mitochondrial (Mus musculus), sequence (P54071 whole entry): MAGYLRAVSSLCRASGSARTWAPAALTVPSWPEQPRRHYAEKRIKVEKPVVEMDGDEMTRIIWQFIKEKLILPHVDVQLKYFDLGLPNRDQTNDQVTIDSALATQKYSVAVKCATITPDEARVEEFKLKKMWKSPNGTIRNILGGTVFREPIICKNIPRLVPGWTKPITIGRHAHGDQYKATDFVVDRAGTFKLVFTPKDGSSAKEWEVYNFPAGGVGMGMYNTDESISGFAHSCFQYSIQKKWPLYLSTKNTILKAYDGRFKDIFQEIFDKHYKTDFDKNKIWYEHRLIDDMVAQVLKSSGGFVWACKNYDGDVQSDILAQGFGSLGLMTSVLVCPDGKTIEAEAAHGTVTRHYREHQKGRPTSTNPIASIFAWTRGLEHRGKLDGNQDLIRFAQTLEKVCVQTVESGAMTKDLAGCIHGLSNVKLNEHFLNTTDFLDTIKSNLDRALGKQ

[3] = molecular target: Hydroxyacyl-coenzyme A dehydrogenase, mitochondrial (Rattus norvegicus) (UniProt Q9WVK7); assay: Binding affinity to mitochondrial short-chain L-3-hydroxyacyl-coenzyme A dehydrogenase in Sprague-Dawley rat heart homogenate after 15 mins by chromatographic analysis; type: tissue-based
[4] = molecular target: Glyceraldehyde-3-phosphate dehydrogenase (Rattus norvegicus) (UniProt P04797); assay: Binding affinity to glyceraldehyde 3-phosphate dehydrogenase in Sprague-Dawley rat heart homogenate after 15 mins by chromatographic analysis; type: tissue-based
[5] = molecular target: Very long-chain specific acyl-CoA dehydrogenase, mitochondrial (Rattus norvegicus) (UniProt P45953); assay: Binding affinity to mitochondrial very long-chain specific acyl-CoA dehydrogenase in Sprague-Dawley rat heart homogenate after 15 mins by chromatographic analysis; type: tissue-based
Very long-chain specific acyl-CoA dehydrogenase, mitochondrial (Rattus norvegicus), sequence (P45953 whole entry): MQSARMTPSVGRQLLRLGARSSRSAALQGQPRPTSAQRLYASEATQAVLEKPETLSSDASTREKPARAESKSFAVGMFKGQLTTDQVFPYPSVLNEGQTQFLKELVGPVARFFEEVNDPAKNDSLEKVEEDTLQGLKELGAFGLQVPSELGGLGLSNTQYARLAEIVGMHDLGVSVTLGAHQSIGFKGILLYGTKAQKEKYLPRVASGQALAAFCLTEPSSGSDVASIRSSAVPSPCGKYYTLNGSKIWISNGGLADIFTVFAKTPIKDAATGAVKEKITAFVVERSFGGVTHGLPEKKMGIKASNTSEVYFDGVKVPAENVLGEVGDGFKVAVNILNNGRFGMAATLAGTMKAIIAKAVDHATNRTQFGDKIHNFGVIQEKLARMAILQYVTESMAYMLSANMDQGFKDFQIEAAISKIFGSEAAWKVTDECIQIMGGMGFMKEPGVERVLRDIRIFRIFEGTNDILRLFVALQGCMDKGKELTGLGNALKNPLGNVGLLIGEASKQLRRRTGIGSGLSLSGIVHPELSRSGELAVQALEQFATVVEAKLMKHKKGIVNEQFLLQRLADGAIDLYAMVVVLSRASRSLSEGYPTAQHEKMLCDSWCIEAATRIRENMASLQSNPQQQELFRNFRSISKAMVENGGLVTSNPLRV

[6] = molecular target: Dihydrolipoyllysine-residue succinyltransferase component of 2-oxoglutarate dehydrogenase complex, mitochondrial (Mus musculus) (UniProt Q9D2G2); assay: Binding affinity to mouse mitochondrial dihydrolipoyllysine-residue succinyltransferase component of 2-oxoglutarate dehydrogenase complex by chromatographic analysis
Dihydrolipoyllysine-residue succinyltransferase component of 2-oxoglutarate dehydrogenase complex, mitochondrial (Mus musculus), sequence (Q9D2G2 whole entry, one chain of several): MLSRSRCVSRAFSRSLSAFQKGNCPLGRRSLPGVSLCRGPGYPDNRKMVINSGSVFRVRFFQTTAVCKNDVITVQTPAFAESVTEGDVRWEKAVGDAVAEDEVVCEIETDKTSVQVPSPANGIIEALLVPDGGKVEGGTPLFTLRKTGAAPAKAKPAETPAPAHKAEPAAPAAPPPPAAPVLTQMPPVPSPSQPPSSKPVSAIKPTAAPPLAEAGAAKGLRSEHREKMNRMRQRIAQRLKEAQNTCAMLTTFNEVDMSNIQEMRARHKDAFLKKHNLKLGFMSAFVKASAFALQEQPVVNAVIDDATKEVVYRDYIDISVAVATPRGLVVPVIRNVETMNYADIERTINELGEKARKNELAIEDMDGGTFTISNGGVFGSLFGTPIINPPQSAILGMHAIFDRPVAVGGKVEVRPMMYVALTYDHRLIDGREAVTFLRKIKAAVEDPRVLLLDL

[7] = molecular target: Medium-chain specific acyl-CoA dehydrogenase, mitochondrial (Rattus norvegicus) (UniProt P08503); assay: Binding affinity to mitochondrial medium-chain specific acyl-CoA dehydrogenase in Sprague-Dawley rat heart homogenate after 15 mins by chromatographic analysis; type: tissue-based
[8] = molecular target: T1, Long-chain specific acyl-CoA dehydrogenase, mitochondrial (Rattus norvegicus) (UniProt P15650); assay: Binding affinity to mitochondrial long-chain specific acyl-CoA dehydrogenase in Sprague-Dawley rat heart homogenate after 15 mins by chromatographic analysis relative to rosiglitazone; type: tissue-based
T1 sequence (whole entry): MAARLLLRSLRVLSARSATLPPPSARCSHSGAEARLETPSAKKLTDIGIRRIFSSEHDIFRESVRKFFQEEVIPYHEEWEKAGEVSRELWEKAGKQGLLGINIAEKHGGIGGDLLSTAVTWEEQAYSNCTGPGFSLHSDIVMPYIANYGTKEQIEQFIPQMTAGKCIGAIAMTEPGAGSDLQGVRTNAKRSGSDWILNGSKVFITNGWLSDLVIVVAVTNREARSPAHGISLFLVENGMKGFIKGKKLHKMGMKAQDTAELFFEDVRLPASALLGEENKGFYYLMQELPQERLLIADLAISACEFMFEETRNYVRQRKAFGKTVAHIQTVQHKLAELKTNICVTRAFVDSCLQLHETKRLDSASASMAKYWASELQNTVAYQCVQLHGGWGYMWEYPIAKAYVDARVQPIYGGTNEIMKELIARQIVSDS

[9] = molecular target: T2, Dihydrolipoyl dehydrogenase, mitochondrial (Mus musculus) (UniProt O08749); assay: Binding affinity to mouse mitochondrial dihydrolipoyl dehydrogenase by chromatographic analysis relative to rosiglitazone
T2 sequence (whole entry): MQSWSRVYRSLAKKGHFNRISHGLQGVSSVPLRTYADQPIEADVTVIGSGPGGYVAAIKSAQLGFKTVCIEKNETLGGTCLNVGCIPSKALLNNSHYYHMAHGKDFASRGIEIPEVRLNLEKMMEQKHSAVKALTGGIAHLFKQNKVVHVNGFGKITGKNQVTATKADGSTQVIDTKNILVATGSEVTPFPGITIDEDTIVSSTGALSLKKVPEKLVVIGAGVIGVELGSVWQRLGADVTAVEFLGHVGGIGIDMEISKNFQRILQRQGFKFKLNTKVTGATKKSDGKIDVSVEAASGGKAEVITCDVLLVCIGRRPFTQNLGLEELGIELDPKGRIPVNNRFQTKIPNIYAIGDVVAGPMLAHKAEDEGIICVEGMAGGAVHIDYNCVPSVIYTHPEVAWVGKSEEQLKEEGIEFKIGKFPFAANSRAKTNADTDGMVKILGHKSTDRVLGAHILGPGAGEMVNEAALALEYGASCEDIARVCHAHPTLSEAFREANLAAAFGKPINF

[10] = molecular target: L-lactate dehydrogenase A chain (Rattus norvegicus) (UniProt P04642); assay: Binding affinity to L-lactate dehydrogenase A chain in Sprague-Dawley rat heart homogenate after 15 mins by chromatographic analysis; type: tissue-based
[11] = molecular target: Malate dehydrogenase, mitochondrial (Rattus norvegicus) (UniProt P04636); assay: Binding affinity to mitochondrial malate dehydrogenase in Sprague-Dawley rat heart homogenate after 15 mins by chromatographic analysis; type: tissue-based
Malate dehydrogenase, mitochondrial (Rattus norvegicus), sequence (P04636 whole entry): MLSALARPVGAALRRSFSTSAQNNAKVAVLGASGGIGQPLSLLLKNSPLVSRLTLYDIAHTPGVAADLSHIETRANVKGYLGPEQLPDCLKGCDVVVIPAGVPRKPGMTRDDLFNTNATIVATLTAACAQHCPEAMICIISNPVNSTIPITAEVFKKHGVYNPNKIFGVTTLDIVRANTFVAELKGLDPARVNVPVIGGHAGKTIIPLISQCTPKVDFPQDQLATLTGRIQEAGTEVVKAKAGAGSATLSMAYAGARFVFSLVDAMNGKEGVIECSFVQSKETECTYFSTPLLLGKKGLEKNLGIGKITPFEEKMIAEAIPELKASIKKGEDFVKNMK

[12] = molecular target: L-lactate dehydrogenase B chain (Rattus norvegicus) (UniProt P42123); assay: Binding affinity to L-lactate dehydrogenase B chain in Sprague-Dawley rat heart homogenate after 15 mins by chromatographic analysis relative to rosiglitazone; type: tissue-based
L-lactate dehydrogenase B chain (Rattus norvegicus), sequence (P42123 whole entry): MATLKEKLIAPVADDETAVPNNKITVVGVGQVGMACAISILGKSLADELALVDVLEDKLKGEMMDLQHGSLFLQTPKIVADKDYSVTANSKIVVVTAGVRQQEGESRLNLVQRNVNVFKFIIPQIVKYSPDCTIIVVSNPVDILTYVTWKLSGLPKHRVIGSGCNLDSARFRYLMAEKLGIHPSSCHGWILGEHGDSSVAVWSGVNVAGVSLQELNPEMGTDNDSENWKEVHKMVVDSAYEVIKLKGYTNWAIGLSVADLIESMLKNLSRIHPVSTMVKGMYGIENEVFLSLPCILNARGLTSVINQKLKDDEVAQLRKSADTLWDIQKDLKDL

[13] = molecular target: Pyruvate dehydrogenase E1 component subunit alpha, somatic form, mitochondrial (Rattus norvegicus) (UniProt P26284); assay: Binding affinity to mitochondrial pyruvate dehydrogenase E1 component subunit alpha in Sprague-Dawley rat heart homogenate after 15 mins by chromatographic analysis; type: tissue-based
Pyruvate dehydrogenase E1 component subunit alpha, somatic form, mitochondrial (Rattus norvegicus), sequence (P26284 whole entry): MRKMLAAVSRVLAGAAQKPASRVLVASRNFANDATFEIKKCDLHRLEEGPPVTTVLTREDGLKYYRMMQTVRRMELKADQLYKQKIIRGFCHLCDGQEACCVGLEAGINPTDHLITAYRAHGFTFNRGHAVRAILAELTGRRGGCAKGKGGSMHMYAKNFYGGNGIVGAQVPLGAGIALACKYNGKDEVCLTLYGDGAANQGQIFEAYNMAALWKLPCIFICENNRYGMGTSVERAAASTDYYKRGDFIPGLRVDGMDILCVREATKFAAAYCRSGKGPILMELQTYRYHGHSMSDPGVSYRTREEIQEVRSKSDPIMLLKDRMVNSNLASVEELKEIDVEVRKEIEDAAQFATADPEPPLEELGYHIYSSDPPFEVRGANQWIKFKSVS

[14] = molecular target: Malate dehydrogenase, cytoplasmic (Mus musculus) (UniProt P14152); assay: Binding affinity to mouse cytoplasmic malate dehydrogenase by chromatographic analysis
Malate dehydrogenase, cytoplasmic (Mus musculus), sequence (P14152 whole entry): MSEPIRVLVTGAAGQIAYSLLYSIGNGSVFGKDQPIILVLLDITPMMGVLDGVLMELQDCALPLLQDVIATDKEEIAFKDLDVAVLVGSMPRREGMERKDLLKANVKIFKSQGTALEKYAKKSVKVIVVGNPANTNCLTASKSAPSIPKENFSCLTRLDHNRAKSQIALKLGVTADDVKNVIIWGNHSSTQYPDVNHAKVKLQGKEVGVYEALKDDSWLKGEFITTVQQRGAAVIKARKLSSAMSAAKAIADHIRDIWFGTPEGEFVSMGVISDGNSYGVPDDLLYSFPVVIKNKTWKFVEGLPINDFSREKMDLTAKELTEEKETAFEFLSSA

[15] = molecular target: Short-chain specific acyl-CoA dehydrogenase, mitochondrial (Rattus norvegicus) (UniProt P15651); assay: Binding affinity to mitochondrial short-chain specific acyl-CoA dehydrogenase in Sprague-Dawley rat heart homogenate after 15 mins by chromatographic analysis; type: tissue-based
Short-chain specific acyl-CoA dehydrogenase, mitochondrial (Rattus norvegicus), sequence (P15651 whole entry): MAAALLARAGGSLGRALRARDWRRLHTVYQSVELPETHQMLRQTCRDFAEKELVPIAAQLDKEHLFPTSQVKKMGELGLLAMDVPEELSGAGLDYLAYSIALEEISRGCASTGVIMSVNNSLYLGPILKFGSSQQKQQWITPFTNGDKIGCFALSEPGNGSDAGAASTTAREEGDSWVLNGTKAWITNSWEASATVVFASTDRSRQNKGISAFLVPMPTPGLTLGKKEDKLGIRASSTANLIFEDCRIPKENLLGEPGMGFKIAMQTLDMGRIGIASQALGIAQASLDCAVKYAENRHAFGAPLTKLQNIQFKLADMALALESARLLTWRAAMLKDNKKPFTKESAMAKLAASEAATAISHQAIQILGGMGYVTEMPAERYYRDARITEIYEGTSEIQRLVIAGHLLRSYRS

[16] = molecular target: 2-oxoglutarate dehydrogenase complex component E1 (Mus musculus) (UniProt Q60597); assay: Binding affinity to mouse mitochondrial 2-oxoglutarate dehydrogenase E1 component by chromatographic analysis
2-oxoglutarate dehydrogenase complex component E1 (Mus musculus), sequence (Q60597 whole entry, one chain of several): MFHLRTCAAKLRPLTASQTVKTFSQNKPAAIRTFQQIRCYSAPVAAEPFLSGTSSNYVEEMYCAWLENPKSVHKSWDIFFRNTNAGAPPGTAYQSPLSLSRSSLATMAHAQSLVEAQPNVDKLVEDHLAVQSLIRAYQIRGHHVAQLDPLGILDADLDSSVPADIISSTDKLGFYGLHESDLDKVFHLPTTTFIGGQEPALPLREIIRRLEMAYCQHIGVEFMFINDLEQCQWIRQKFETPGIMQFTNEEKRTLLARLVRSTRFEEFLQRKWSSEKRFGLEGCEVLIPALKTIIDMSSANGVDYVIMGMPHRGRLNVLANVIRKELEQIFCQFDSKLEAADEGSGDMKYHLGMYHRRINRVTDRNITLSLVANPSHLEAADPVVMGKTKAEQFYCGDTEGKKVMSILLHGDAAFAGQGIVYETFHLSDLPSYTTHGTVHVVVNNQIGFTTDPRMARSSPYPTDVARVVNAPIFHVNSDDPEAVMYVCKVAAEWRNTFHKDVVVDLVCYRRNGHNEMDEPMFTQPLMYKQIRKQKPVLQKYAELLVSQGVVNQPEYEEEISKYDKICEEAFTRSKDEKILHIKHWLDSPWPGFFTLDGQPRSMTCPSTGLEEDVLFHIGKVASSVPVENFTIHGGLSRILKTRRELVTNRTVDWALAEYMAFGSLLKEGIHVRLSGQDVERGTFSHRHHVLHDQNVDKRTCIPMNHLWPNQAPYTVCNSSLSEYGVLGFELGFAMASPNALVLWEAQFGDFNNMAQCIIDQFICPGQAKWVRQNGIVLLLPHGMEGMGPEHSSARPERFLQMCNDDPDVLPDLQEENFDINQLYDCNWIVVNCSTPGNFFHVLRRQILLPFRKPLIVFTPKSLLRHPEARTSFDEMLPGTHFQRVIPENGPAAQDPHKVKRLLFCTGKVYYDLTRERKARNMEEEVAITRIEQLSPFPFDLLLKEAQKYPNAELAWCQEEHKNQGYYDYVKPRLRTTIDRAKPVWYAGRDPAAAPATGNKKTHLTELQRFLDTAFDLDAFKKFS

Measured: Activity

Glutamate dehydrogenase 1, mitochondrial (Rattus norvegicus), sequence (P10860 whole entry): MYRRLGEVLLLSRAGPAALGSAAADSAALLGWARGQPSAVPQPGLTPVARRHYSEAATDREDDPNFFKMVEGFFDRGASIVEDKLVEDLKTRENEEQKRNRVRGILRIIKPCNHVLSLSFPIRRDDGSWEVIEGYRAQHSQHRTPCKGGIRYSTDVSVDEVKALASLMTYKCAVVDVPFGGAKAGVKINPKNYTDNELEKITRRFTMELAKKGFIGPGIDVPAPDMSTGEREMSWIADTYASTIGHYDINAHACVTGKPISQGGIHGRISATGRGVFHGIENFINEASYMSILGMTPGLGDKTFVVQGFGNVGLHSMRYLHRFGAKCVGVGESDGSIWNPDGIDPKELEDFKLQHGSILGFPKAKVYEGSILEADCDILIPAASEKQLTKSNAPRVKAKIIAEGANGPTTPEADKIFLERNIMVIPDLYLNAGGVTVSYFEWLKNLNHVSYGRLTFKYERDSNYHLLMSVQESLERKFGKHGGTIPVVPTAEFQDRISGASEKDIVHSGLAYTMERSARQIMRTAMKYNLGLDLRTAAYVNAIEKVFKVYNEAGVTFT

O=C1NC(=O)C(Cc2ccc(O)cc2)S1 (stereo unspecified)
active: all assays above

Source: ChEMBL document CHEMBL2177025, “Chemical proteomics-based analysis of off-target binding profiles for rosiglitazone and pioglitazone: clues for assessing potential for cardiotoxicity” (J Med Chem, 2012)
